Marks after values point to notes of the source that are not given here.
Tested on: normal Wistar rats
Assay: Pancreatic insulin content in normal rats treated with TGF-α and gastrin
Format: in vivo, rat
Details: i.p. 0.8 μg/day each for 10 days, n=5, mean +/− SEM
Method: Animals. Mice, FVB and CD strain, were obtained from Taconic Farms, Inc., Germantown, N.Y. The TGF-α transgenic line MT-42 used, which expresses high levels of TGF-α from a metallothionein promoter, is described in Jhappan et al, Cell, 61:1137-1146 (1990). Normal Wistar and Zucker rats were allowed normal chow ad libidum with free access to water and were acclimatized for one week prior to initiation of each study. Freshly prepared streptozotocin at a dose of 80 mg/kg body weight was administered by I.V. five to seven days after induction of diabetes, the rats were randomly allocated into groups for subsequent treatment. Hormones, TGF-α and rat gastrin were reconstituted in sterile normal saline containing 0.1% BSA. […]
At the end of the study period (10 days), all animals were sacrificed and samples of pancreas taken as follows: five biopsy specimens (1-2 mg) of pancreatic tissue were taken from separate representative sites in each rat pancreas and immediately snap frozen in liquid nitrogen for analysis of insulin content. […] Pancreatic insulin content values were corrected according to protein content and finally expressed as μg insulin/mg pancreatic protein. All values calculated as mean +/− SEM and statistical significance evaluated using Student's 2-sample t-test.

In the case of “TGF-α: recombinant Human TGF-α, an EGF receptor ligand, reconstituted in sterile saline containing 0.1% BSA”, the “Pancreatic Insulin Content” value is reported as 30.4 +/− 7.4* μg insulin/mg protein.

Source: patent publication US6558952B1, “Treatment for diabetes” (Waratah Pharmaceuticals, Inc., priority 1992, dated 2003)
